Consider 27 compounds from PubChem BioAssay (NCI).

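A five-concentration, 48-hour dose response in 96-well plates underlies each endpoint, interpolated linearly between surrounding concentrations. The concentration for full growth arrest is given as TGI.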

What all share (experiment): NCI-60 cell line screen, 48 h
The subject of assay [1] is XF 498 CNS.
Assay [2] relates to DMS 114 small cell lung.
Assay [3] has as its system KM20L2 colon.
The subject of assay [4] is SNB-78 CNS.
For assay [5], the system named is M19-MEL melanoma.
Assay [6] concerns HOP-18 NSCLC.
In assay [7] the test system is DLD-1 colon.
The test system of assay [8] is DMS 273 small cell lung.
Assay [9] has as its system RXF-631 renal.

In the case of `Cc1nc(Nc2ccccc2)sc1C(=O)NNc1ccc([N+](=O)[O-])cc1[N+](=O)[O-]`, the TGI in [1] is 55.3 µM; in assay [2], 65.8 µM; in [3] it was above 100 µM; in [4] it was above 100 µM; in assay [5] it was above 100 µM; in assay [6], above 100 µM. The TGI in assay [7] and in assay [8] was above 100 µM throughout.
With `O=C(O)Cn1c(=O)[nH]c(=O)c2[nH]cnc21`, the TGI in assay [2], in assay [3], in [4], in [5], in [9] and in [6] was above 100 µM each time. In addition, the TGI in assay [7] and in assay [8] was above 100 µM in each case.
In the case of `CN(C)CC1(Cc2ccccc2)CCC(Cc2ccccc2)C1=O` (configuration not stated), the TGI in assay [1] is 36.3 µM; in assay [2], 36.4 µM; in assay [3], 32.4 µM; in assay [4], 43.4 µM; in assay [5], 32 µM; in assay [6] it was 21.3 µM. Also, the TGI in [7] stood at 8.26 µM; in assay [8], 29 µM.
For the compound `CC(=O)NC(CCCNC(=O)NCCCl)C(=O)NCc1ccccc1` (configuration not stated), the TGI in [2], in [3], in [5], in assay [9], in assay [6] and in [8] was above 100 µM in each case.
On to `COc1ccc(NC(=O)CC(=O)N/N=C/c2ccc(N(CCC#N)S(=O)(=O)c3ccccc3)cc2)cc1`, for which the TGI in assay [1], in assay [2], in [3], in assay [4], in assay [5] and in assay [9] was above 100 µM each time. Besides, the TGI in assay [6] and in assay [7] was above 100 µM throughout.
Turning to `COC(=O)c1ccccc1NC(=O)C(=O)CC(=O)CC(c1ccccc1)c1c(O)c2ccccc2oc1=O` (configuration not stated), the TGI in [2], in [3], in assay [5], in [9] and in assay [7] was above 100 µM each time.
For `C/C(CC(=O)NC1=CC=C(NC(=O)C/C(C)=N\Nc2ccccc2)CC1)=N/Nc1ccccc1`, the TGI in assay [1], in [2], in [3], in assay [4], in assay [5] and in [9] was above 100 µM throughout. Also, the TGI in assay [6], in [7] and in assay [8] was above 100 µM each time.
Regarding `CC(C)(Oc1ccc2c(=O)cc(-c3ccccc3)oc2c1)C(=O)Nc1c(Cl)cccc1Cl`, the TGI was 72.2 µM in assay [1]; above 100 µM in assay [2]; above 100 µM in assay [3]; above 100 µM in assay [4]; above 100 µM in assay [5]; above 100 µM in [6]. For the same compound, in assay [8], the TGI is above 100 µM.
Regarding `CCc1cccc(CC)c1NC(=O)C1=C(C)NC(C)=C(C(=O)Nc2c(CC)cccc2CC)C1c1ccc2c(c1)OCO2`, the TGI was found to be 30.5 µM in assay [3]; 52.3 µM in assay [4]; 30.9 µM in [5]; 61.2 µM in assay [6]; 50.3 µM in assay [7]; 26 µM in [8].
Take `N#CC(C(=N/NC(N)=S)/C(=N/NC(N)=S)C(C#N)c1ccc(Cl)cc1)c1ccc(Cl)cc1` (configuration not stated): the TGI in assay [1], in assay [2], in assay [3], in assay [4], in [5] and in assay [6] was above 100 µM in each case. For the same compound, the TGI in assay [7] and in [8] was above 100 µM throughout.
With `Cn1nc2ccc3nccc(N(CCO)CCO)c3c2n1`, the TGI in assay [1], in [3], in assay [4], in assay [5], in assay [6] and in assay [7] was above 100 µM in each case. The compound further came in with a TGI in assay [8] above 100 µM.
For the compound `CCN(CC)Cc1cc(Nc2c3ccccc3nc3c4ccccc4n(C)c23)ccc1O`, the TGI was determined as 17.1 µM in assay [1]; 19.5 µM in assay [2]; 17.3 µM in assay [3]; 41.2 µM in assay [4]; 19 µM in [5]; 13.8 µM in assay [9]. Also, the TGI stood at 27.1 µM in assay [6], 21 µM in assay [7] and 17.9 µM in assay [8].
Turning to `CCc1cccc(C(C)CC)c1NC(=O)C(=O)C(CC(=O)Nc1ccc(Cl)c(Cl)c1)C(=O)OC` (configuration not stated), the TGI in assay [2] was above 100 µM; in assay [3], above 100 µM; in [4], above 100 µM; in [5], above 100 µM; in assay [7], above 100 µM; in [8], 55.9 µM.
For `CCOC(=O)c1[nH]c(CN(C)Cc2[nH]c(C(=O)OCC)c(C)c2C(=O)OCc2ccccc2)c(C(=O)OCc2ccccc2)c1C`, the TGI in [2] is above 100 µM; in assay [3], 14.1 µM; in assay [4], above 100 µM; in assay [9], 43.4 µM; in assay [6] it was above 100 µM; in [7], above 100 µM. Moreover, the TGI in assay [8] amounted to 35 µM.
For `CCCCCCCCCCCCn1[nH]c(C)c(C(=S)SCCCCCCCC)c1=O`, the TGI was above 100 µM in assay [1]; above 79.4 µM in assay [2]; above 100 µM in [3]; above 100 µM in [4]; 67.7 µM in [5]; above 100 µM in [9]. Moreover, the results for the TGI in assay [6], in assay [7] and in assay [8] were above 100 µM, above 94.6 µM and above 100 µM, respectively.
As for `CC1C=C[C@H](Sc2ccccc2)CC[C@@]1(C)O` (some centres not stated), the TGI in assay [2], in assay [3], in assay [4], in [5] and in [7] was above 100 µM each time.
Turning to `CCCCCCCCCCCC(O)=C1C(=O)CC(O)CC1=O` (configuration not stated), the TGI in assay [1], in [2], in assay [3], in [4], in assay [5] and in assay [9] was above 100 µM each time. The TGI in assay [6] and in assay [8] was above 100 µM throughout.
In the case of `CCC1(N=[N+]=[N-])C(=O)c2ccccc2N(c2ccccc2)C1=O` (configuration not stated), the TGI in [1], in [2], in [3], in assay [4], in [5] and in assay [6] was above 100 µM throughout. The TGI in [7] and in assay [8] was above 100 µM in each case.
With `CCCCNC(=O)CCN(C(=O)O)S(=O)(=O)c1ccc(NC(=O)c2ccccc2)cc1`, the TGI in [1], in assay [2], in assay [3], in assay [4], in assay [5] and in [6] was above 100 µM each time. Moreover, the TGI in [7] was above 100 µM; in assay [8], 86.5 µM.
As to `Brc1ccc2c(c1)C1C(CO2)C(c2ccccc2)=NN1c1ccccc1` (configuration not stated), the TGI in assay [1], in [2], in assay [3], in [4], in assay [5] and in assay [6] was above 100 µM throughout. Further, the TGI in [7] and in assay [8] was above 100 µM throughout.
Take `COC(=O)NC(=O)c1cn(CCCOC(=O)CCCCCCCCC(=O)OCCCn2cc(C(=O)NC(=O)OC)c(=O)[nH]c2=O)c(=O)[nH]c1=O`: the TGI was 58.8 µM in assay [1]; above 100 µM in assay [2]; above 100 µM in assay [3]; above 100 µM in assay [4]; above 100 µM in assay [5]; above 100 µM in [9]. In addition, the TGI in [6], in [7] and in assay [8] was above 100 µM in each case.
With `CSc1nc2c(c(O)c(C)c(=O)n2C2OCC(OC(C)=O)C(OC(C)=O)C2OC(C)=O)c(=O)n1C` (configuration not stated), the TGI in [2], in assay [3], in [4], in [5] and in assay [7] was above 100 µM throughout.
On to `Cc1cc(N(CCC#N)CCC#N)ccc1N=Nc1cccc(Cl)c1`, for which the TGI in assay [2], in assay [3], in [4], in [5] and in assay [8] was above 100 µM in each case.
As to `O=S(=O)(O)c1cc(N=Nc2cc(S(=O)(=O)O)c3cccnc3c2O)ccc1/C=C/c1ccc(N=Nc2cc(S(=O)(=O)O)c3cccnc3c2O)cc1S(=O)(=O)O`, the TGI in assay [1], in [2], in assay [3], in assay [4], in assay [5] and in assay [9] was above 100 µM in each case. The TGI in assay [6], in assay [7] and in [8] was above 100 µM each time.
Regarding `COc1ccc(N2C(=O)[C@@H]3[C@H](C2=O)c2[nH]c4ccccc4c2C2CCC(C(C)(C)C)C[C@@H]23)cc1` (some centres not stated), the TGI in [1] is above 100 µM; in assay [3], above 100 µM; in assay [4], 59.5 µM; in assay [5] it was above 100 µM; in assay [7], above 100 µM; in assay [8], above 77.9 µM.
As for `COC(=O)CCc1cccnc1/C=N/O`, the TGI in [2], in assay [3], in assay [4], in assay [5], in assay [9] and in assay [6] was above 100 µM each time. Moreover, the TGI in assay [7] and in assay [8] was above 100 µM in each case.
In the case of `COC(=O)C1N=CSCC1(C)O` (configuration not stated), the TGI in [1], in assay [2], in assay [3], in assay [4], in assay [5] and in assay [6] was above 100 µM each time. Also, in assay [7], the TGI is above 100 µM.
